According to ChEMBL document CHEMBL5579854, “Targeting Relevant HDACs to Support the Survival of Cone Photoreceptors in Inherited Retinal Diseases: Identification of a Potent Pharmacological Tool with In Vitro and In Vivo Efficacy” (J Med Chem, 2024):
In brackets after ≈: the same amount, converted by molar mass. Activity calls are given as the source filed them. The rule behind the calls is not given here.

Key:
Histone deacetylase 8 = molecular target: T1, Histone deacetylase 8 (Homo sapiens, UniProt Q9BY41); test: Inhibition of C-terminal His-tagged full-length recombinant human HDAC8 (1 to 377 residues) expressed in Sf9 insect cells using a fluorogenic substrate preincubated for 30 mins followed by substrate addition measured after 30 mins by fluorescence based assay
T1 sequence (Q9BY41 whole entry): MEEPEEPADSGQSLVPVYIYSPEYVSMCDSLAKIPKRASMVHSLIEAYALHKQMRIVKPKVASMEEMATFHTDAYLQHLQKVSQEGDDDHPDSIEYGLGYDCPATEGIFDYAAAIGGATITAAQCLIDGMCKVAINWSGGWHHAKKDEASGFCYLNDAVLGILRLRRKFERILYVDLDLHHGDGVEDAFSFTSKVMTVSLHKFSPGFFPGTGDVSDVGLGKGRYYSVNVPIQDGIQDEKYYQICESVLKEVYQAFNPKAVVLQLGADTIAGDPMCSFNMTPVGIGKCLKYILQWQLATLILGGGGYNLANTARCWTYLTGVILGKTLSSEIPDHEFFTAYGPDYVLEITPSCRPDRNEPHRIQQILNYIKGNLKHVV

[1] = molecular target: T2, Protein deacetylase HDAC6 (Homo sapiens, UniProt Q9UBN7); test: Inhibition of C-terminal FLAG-tagged full-length recombinant human HDAC6 (1 to 1215 residues) expressed in Sf9 insect cells using a fluorogenic substrate preincubated for 30 mins followed by substrate addition measured after 30 mins by fluorescence based assay
T2 sequence (Q9UBN7 whole entry): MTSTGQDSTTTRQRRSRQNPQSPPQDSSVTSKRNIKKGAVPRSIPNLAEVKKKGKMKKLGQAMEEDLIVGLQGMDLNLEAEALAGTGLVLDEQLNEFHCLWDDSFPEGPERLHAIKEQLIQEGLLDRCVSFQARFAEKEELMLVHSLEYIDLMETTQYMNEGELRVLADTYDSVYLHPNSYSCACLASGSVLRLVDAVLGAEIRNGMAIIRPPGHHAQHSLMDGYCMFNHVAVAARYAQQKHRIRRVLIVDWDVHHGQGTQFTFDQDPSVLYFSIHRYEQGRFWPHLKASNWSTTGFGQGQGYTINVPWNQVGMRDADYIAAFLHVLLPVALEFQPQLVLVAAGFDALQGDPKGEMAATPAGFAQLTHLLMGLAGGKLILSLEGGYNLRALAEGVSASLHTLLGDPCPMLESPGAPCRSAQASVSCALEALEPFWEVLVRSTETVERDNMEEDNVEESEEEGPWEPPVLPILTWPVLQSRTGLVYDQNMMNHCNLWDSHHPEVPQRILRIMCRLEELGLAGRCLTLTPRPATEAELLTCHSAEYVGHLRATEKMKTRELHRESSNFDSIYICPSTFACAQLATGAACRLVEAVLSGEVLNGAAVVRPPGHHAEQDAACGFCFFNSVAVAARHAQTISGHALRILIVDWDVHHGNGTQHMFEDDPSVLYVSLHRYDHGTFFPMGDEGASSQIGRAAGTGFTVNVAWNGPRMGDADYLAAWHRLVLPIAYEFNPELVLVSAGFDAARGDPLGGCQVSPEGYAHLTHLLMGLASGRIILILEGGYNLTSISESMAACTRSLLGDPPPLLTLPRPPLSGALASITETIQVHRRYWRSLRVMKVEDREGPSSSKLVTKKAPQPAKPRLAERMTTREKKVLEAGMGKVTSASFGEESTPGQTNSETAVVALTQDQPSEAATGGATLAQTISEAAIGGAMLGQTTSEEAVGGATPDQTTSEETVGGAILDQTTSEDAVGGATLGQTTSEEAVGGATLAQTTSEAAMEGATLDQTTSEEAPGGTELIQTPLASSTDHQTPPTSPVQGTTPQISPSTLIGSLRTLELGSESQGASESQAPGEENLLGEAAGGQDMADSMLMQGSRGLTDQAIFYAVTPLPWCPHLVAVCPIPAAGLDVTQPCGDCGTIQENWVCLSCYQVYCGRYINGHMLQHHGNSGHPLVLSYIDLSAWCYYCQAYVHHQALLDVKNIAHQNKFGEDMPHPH

[2] = Stability of compound at pH 7.4 measured after 24 hrs; assay type: physicochemical; details: buffer, read-out: Stability
[3] = Solubility of compound; assay type: physicochemical
Histone deacetylase 5 [4] = molecular target: T3, Histone deacetylase 5 (Homo sapiens, UniProt Q9UQL6); test: Inhibition of C-terminal His-tagged recombinant human HDAC5 catalytic domain (656 to 1122 residues) expressed in baculovirus infected Sf9 insect cells using a fluorogenic substrate preincubated for 30 mins followed by substrate addition measured after 30 mins by fluorescence based assay relative to control; details: time 60.0 min
Histone deacetylase 1 [5] = molecular target: T4, Histone deacetylase 1 (Homo sapiens, UniProt Q13547); test: Inhibition of C-terminal 6xHis-tagged full-length recombinant human HDAC1 (1 to 482 residues) expressed in Sf9 insect cells using a fluorogenic substrate preincubated for 30 mins followed by substrate addition measured after 30 mins by fluorescence based assay
Histone deacetylase 5 [6] = molecular target: T3, Histone deacetylase 5; test: Inhibition of C-terminal His-tagged recombinant human HDAC5 catalytic domain (656 to 1122 residues) expressed in baculovirus infected Sf9 insect cells using a fluorogenic substrate preincubated for 30 mins followed by substrate addition measured after 30 mins by fluorescence based assay
[7] = Lipophilicity, logP of compound; assay type: physicochemical; details: octanol/water
661W [8] = test: Effect on acetylated histone H3 level in H2O2-induced oxidative stress in mouse 661W cells at 10 uM incubated for 24 hrs followed by H2O2 treatment for 3 hrs by Western blot analysis; assay type: functional, cell-based; details: time 27.0 hrs
661W [9] = test: Cytoprotective effect against H2O2-induced oxidative stress in mouse 661W cells assessed as increase in acetylated alpha-tubulin level at 10 uM incubated for 24 hrs followed by H2O2 treatment for 3 hrs by immunofluorescence analysis; assay type: functional, cell-based; details: time 27.0 hrs
661W [10] = test: Effect on acetylated alpha-tubulin level in H2O2-induced oxidative stress in mouse 661W cells at 10 uM incubated for 24 hrs followed by H2O2 treatment for 3 hrs by Western blot analysis; assay type: functional, cell-based; details: time 27.0 hrs
Histone deacetylase 1 [11] = molecular target: T4, Histone deacetylase 1; test: Inhibition of C-terminal 6xHis-tagged full-length recombinant human HDAC1 (1 to 482 residues) expressed in Sf9 insect cells using a fluorogenic substrate preincubated for 30 mins followed by substrate addition measured after 30 mins by fluorescence based assay relative to control; details: time 60.0 min
[12] = molecular target: T5, Histone deacetylase 8 (Homo sapiens) (UniProt Q9BY41); test: Inhibition of C-terminal His-tagged full-length recombinant human HDAC8 (1 to 377 residues) expressed in Sf9 insect cells using a fluorogenic substrate preincubated for 30 mins followed by substrate addition measured after 30 mins by fluorescence based assay relative to control; details: time 60.0 min
T5 sequence (whole entry): T1 sequence (Q9BY41 whole entry)

T4 sequence (Q13547 whole entry, the tested form may be a part): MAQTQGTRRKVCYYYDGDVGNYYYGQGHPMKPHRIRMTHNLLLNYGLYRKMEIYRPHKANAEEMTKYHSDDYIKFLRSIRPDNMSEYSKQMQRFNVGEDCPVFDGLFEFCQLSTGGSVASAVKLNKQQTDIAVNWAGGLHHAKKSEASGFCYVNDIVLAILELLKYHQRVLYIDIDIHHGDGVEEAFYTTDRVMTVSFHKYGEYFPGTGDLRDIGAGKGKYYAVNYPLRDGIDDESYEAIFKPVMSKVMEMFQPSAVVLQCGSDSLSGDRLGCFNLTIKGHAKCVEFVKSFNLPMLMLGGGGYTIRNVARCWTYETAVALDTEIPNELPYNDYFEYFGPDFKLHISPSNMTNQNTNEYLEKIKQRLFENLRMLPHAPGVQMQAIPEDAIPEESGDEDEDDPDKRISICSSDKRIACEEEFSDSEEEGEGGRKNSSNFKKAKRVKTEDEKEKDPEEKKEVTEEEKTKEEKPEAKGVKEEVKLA
T3 sequence (Q9UQL6 whole entry, the tested form may be a part): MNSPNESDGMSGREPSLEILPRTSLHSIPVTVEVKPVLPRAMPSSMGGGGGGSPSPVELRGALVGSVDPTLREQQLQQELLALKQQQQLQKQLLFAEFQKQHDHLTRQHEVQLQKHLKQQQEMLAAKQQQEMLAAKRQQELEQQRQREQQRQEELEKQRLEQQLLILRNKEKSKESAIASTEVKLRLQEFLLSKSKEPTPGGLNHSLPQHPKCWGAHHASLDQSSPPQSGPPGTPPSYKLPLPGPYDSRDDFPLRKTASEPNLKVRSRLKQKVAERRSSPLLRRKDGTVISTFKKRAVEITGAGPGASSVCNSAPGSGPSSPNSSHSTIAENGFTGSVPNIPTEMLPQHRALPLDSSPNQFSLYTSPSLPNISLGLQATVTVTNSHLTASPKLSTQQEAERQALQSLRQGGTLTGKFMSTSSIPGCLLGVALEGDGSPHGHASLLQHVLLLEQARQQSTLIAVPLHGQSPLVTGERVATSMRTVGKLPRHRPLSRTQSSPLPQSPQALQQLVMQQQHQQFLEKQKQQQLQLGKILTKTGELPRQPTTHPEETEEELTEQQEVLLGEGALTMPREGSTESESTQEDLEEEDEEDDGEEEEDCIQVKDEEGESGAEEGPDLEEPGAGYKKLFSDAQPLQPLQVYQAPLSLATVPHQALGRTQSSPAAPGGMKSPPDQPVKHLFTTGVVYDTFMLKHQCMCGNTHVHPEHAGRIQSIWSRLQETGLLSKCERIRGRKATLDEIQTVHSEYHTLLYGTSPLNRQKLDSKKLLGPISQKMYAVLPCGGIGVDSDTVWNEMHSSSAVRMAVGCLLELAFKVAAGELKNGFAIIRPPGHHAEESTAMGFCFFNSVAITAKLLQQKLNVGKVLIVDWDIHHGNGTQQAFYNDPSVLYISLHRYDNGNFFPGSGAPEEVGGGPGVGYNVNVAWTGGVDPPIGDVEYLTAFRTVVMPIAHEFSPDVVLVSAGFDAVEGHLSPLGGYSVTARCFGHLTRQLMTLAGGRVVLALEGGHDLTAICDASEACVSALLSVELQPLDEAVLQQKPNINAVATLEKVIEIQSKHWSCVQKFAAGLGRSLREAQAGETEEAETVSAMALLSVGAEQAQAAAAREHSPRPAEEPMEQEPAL

| remaining at 24 h [2] | solubility [3] | logP [7] | Compound | other results |
| --- | --- | --- | --- | --- |
| 97% | 285 µM (≈ 106 µg/mL) | 2.04 | CC1(C)c2ccccc2N(Cc2ccc(C(=O)NO)cc2)C1c1cccnc1 (stereo not drawn) | IC50 (Histone deacetylase 8): 2200 nM; IC50 [1]: 40.8 nM; inhibition (Histone deacetylase 5 [4]): 14%; IC50 (Histone deacetylase 1 [5]): 5.42 µM; IC50 (Histone deacetylase 5 [6]): > 10 µM |
| 75% | 231 µM (≈ 77.5 µg/mL) | 2.02 | CN1CCc2c(c3ccccc3n2Cc2ccc(C(=O)NO)cc2)C1 [TUBASTATIN A] | Activity (661W [8]): inactive; Activity (661W [9]): Active; Activity (661W [10]): inactive |
| – | – | 2.57 | CC(/C=C/C(=O)NO)=C\[C@@H](C)C(=O)c1ccc(N(C)C)cc1 [TRICHOSTATIN] | – |
| – | – | – | Cn1c2c(c3ccccc31)CN(C(=O)NCc1ccc(C(=O)NO)cc1)CC2 | inhibition (Histone deacetylase 1 [11]): 41%; IC50 (Histone deacetylase 1 [5]): > 10 µM |
| 90% | 227 µM (≈ 86.1 µg/mL) | 3.2 | Cn1c2c(c3ccccc31)CN(C(=O)OCc1ccc(C(=O)NO)cc1)CC2 | inhibition [12]: 38%; IC50 (Histone deacetylase 8): > 10000 nM |
| 90% | 141 µM (≈ 62.1 µg/mL) | 3.99 | O=C(NO)c1ccc(NC(=O)N2CCc3c(c4ccccc4n3Cc3ccccc3)C2)cc1 | – |
| 74% | 223 µM (≈ 97.6 µg/mL) | 2.5 | CC(C)(C)OC(=O)N1CCC2(CC1)CN(Cc1ccc(C(=O)NO)cc1)c1ccccc12 | – |
| 64% | 156 µM (≈ 73.6 µg/mL) | 4.2 | O=C(NO)c1ccc(COC(=O)N2CCC3(CC2)CN(Cc2ccccc2)c2ccccc23)cc1 | – |
| 71% | 97 µM (≈ 34.1 µg/mL) | 2.1 | CN1CC2(CCN(Cc3ccc(C(=O)NO)cc3)CC2)c2ccccc21 | – |
| 92% | 295 µM (≈ 159 µg/mL) | 4.08 | CCN(CC)Cc1ccc(Cn2c3c(c4ccccc42)CN(C(=O)NCc2ccc(C(=O)NO)cc2)CC3)cc1 | – |
| – | – | – | O=C(NO)c1ccc(CNC(=S)N2CCc3c(c4ccccc4n3Cc3ccccc3)C2)cc1 | IC50 [1]: > 10000 nM |
| 94% | 200 µM (≈ 67.1 µg/mL) | 1.97 | Cn1c2c(c3ccccc31)CN(Cc1ccc(C(=O)NO)cc1)CC2 | inhibition (Histone deacetylase 1 [11]): 43%; IC50 (Histone deacetylase 1 [5]): > 10 µM |
